Results from the kinase profiling compilation of Christmann-Franck et al. (2016).

Legend:
Test in all cases: KINOMEscan competition binding
Details in all cases: compound 10.0 µM
ACVR2B (human) = ACVR2B (human) (UniProt Q13705)
ADCK3 (human) = ADCK3 (human) (UniProt Q8NI60)
AURKA (human) = AURKA (human) (UniProt O14965)
BMPR1A (human) = BMPR1A (human) (UniProt P36894)
BRSK1 (human) = BRSK1 (human) (UniProt Q8TDC3)
CAMK2A (human) = CAMK2A (human) (UniProt Q9UQM7)
CAMK2G (human) = CAMK2G (human) (UniProt Q13555)
CLK3 (human) = CLK3 (human) (UniProt P49761)
Chain of CLK3 (human) (P49761 whole entry, looked up): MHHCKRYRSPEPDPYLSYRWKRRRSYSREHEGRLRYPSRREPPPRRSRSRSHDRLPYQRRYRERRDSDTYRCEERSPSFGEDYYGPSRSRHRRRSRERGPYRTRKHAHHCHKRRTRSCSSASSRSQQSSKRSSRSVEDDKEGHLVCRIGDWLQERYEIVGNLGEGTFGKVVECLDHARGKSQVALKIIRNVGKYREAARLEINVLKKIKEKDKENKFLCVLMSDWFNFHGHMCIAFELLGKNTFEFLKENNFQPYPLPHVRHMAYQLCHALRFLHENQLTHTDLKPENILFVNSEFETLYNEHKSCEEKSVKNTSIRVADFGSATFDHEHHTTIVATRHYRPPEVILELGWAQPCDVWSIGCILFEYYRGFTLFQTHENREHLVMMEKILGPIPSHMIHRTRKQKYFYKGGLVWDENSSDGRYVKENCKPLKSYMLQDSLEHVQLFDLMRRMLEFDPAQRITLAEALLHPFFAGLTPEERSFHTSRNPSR

CSNK1A1L (human) = CSNK1A1L (human) (UniProt Q8N752)
DAPK2 (human) = DAPK2 (human) (UniProt Q9UIK4)
DCLK1 (human) = DCLK1 (human) (UniProt O15075)
DDR2 (human) = DDR2 (human) (UniProt Q16832)
EPHA4 (human) = EPHA4 (human) (UniProt P54764)
EPHA7 (human) = EPHA7 (human) (UniProt Q15375)
FLT3 (human) = FLT3 (human) (UniProt P36888)
FRK (human) = FRK (human) (UniProt P42685)
FYN (human) = FYN (human) (UniProt P06241)
HIPK1 (human) = HIPK1 (human) (UniProt Q86Z02)
Chain of HIPK1 (human) (Q86Z02 whole entry, looked up): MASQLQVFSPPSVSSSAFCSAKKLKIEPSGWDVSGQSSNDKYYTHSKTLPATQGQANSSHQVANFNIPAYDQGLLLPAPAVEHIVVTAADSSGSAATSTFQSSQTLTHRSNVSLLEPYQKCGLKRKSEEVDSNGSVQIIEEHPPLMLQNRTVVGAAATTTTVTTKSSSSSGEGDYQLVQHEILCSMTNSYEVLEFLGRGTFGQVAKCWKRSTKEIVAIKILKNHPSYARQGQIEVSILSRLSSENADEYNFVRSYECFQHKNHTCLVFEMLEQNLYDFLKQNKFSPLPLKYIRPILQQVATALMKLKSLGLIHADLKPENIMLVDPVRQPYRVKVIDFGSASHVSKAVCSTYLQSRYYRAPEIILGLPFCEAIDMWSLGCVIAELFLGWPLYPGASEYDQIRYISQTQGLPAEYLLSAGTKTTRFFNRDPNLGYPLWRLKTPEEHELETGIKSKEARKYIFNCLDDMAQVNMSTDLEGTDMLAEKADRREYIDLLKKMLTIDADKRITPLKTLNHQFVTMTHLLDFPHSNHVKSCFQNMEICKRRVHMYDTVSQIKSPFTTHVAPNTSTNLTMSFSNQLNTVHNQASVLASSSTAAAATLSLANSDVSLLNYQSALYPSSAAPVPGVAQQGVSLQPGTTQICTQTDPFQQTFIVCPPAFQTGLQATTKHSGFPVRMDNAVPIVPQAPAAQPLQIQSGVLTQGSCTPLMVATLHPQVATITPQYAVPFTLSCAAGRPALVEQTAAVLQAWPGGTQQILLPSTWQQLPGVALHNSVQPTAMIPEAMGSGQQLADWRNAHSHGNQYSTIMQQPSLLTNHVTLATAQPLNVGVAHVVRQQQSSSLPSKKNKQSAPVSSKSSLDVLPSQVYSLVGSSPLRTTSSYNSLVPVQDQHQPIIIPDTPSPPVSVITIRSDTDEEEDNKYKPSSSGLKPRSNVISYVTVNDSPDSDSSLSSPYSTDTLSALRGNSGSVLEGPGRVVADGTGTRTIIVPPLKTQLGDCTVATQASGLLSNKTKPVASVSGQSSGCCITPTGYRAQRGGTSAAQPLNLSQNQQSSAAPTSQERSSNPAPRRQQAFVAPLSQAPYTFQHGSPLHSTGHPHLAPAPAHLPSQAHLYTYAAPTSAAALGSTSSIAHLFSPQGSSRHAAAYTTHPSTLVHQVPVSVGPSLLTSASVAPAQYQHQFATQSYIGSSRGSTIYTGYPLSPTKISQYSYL

INSR (human) = INSR (human) (UniProt P06213)
INSRR (human) = INSRR (human) (UniProt P14616)
Chain of INSRR (human) (P14616 whole entry, looked up): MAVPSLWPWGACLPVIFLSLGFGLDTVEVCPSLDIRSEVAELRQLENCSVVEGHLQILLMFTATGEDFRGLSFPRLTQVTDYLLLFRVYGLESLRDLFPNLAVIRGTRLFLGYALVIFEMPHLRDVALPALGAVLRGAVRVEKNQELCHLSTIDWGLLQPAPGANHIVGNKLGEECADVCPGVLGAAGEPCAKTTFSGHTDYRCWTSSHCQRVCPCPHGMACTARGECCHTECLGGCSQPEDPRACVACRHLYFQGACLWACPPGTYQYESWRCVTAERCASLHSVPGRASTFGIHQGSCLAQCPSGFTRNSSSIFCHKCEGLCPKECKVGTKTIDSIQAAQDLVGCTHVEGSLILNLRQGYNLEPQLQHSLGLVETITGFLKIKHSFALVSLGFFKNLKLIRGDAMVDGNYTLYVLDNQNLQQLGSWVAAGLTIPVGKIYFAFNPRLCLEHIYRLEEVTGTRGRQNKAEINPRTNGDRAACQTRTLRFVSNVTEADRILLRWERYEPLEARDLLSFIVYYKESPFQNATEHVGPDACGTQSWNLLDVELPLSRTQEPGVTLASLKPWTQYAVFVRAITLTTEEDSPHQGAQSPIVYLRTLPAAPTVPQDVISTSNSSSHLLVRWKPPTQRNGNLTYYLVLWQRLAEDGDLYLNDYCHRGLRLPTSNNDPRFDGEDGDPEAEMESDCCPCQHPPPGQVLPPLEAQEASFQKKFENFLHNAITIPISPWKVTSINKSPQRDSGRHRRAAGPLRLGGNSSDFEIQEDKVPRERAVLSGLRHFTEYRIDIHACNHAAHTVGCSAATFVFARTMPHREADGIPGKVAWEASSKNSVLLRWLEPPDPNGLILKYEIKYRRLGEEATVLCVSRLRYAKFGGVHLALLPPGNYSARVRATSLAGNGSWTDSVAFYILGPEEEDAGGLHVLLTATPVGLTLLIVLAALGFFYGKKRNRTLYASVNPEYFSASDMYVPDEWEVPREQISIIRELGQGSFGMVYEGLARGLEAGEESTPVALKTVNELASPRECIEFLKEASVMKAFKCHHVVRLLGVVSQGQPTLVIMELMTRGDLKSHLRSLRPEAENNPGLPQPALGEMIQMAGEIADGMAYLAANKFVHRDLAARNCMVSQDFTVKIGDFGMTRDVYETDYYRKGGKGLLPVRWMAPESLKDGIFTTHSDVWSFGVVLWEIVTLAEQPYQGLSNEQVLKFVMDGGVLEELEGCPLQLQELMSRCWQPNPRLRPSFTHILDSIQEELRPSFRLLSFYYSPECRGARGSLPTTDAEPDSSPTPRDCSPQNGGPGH

LIMK2 (human) = LIMK2 (human) (UniProt P53671)
Chain of LIMK2 (human) (P53671 whole entry, looked up): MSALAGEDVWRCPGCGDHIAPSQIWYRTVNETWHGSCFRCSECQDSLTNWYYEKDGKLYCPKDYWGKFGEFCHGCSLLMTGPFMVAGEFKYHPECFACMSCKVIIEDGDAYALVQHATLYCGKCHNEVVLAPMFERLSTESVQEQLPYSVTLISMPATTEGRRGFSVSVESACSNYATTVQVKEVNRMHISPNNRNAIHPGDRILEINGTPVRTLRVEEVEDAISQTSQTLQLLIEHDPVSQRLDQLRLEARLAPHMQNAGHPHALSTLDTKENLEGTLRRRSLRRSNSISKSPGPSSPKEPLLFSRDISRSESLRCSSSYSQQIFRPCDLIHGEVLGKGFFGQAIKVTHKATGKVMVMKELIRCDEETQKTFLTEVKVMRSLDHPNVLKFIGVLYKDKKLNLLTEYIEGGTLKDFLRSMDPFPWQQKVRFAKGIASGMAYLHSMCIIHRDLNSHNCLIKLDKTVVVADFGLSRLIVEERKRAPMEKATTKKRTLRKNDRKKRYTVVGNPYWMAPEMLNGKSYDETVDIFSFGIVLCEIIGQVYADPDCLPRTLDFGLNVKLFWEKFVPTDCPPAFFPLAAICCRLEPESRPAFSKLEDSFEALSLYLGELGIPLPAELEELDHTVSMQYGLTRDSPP

MAP2K3 (human) = MAP2K3 (human) (UniProt P46734)
MAP3K7 (human) = MAP3K7 (human) (UniProt O43318)
MAP3K9 (human) = MAP3K9 (human) (UniProt P80192)
MAPK14 (human) = MAPK14 (human) (UniProt Q16539)
MAPK4 (human) = MAPK4 (human) (UniProt P31152)
MAPK7 (human) = MAPK7 (human) (UniProt Q13164)
Chain of MAPK7 (human) (Q13164 whole entry, looked up): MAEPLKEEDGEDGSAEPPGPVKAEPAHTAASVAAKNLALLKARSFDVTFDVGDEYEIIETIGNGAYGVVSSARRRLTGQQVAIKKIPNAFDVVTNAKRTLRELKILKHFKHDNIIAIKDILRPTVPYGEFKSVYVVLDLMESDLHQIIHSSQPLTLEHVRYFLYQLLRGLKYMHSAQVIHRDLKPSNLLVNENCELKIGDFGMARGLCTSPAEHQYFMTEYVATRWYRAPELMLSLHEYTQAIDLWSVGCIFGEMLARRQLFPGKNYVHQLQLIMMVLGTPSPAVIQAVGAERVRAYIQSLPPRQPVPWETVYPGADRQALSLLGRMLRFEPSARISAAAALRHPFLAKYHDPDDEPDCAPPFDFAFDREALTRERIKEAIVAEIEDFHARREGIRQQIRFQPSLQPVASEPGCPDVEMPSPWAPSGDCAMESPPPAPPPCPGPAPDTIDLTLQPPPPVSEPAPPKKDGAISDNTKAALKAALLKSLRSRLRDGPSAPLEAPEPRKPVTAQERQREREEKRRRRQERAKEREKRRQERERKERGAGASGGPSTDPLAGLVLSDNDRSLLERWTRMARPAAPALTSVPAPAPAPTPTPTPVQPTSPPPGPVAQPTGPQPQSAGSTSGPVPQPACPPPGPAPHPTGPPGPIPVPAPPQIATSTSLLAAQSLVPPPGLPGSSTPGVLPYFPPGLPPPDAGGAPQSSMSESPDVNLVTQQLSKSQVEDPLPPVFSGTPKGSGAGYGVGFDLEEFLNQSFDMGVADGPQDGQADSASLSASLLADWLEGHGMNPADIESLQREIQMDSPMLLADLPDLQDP

PAK7 (human) = PAK7 (human) (UniProt Q9P286)
PHKG2 (human) = PHKG2 (human) (UniProt P15735)
PKMYT1 (human) = PKMYT1 (human) (UniProt Q99640)
PLK3 (human) = PLK3 (human) (UniProt Q9H4B4)
PRKACA (human) = PRKACA (human) (UniProt P17612)
ROCK2 (human) = ROCK2 (human) (UniProt O75116)
RPS6KA5 KD2 (human) = RPS6KA5 KD2 (human) (UniProt O75582)
SIK2 (human) = SIK2 (human) (UniProt Q9H0K1)
STK11 (human) = STK11 (human) (UniProt Q15831)
TGFBR2 (human) = TGFBR2 (human) (UniProt P37173)
TLK1 (human) = TLK1 (human) (UniProt Q9UKI8)
ULK2 (human) = ULK2 (human) (UniProt Q8IYT8)
CSF1R (human) = CSF1R (human) (UniProt P07333)

Chain of ACVR2B (human) (Q13705 whole entry, looked up): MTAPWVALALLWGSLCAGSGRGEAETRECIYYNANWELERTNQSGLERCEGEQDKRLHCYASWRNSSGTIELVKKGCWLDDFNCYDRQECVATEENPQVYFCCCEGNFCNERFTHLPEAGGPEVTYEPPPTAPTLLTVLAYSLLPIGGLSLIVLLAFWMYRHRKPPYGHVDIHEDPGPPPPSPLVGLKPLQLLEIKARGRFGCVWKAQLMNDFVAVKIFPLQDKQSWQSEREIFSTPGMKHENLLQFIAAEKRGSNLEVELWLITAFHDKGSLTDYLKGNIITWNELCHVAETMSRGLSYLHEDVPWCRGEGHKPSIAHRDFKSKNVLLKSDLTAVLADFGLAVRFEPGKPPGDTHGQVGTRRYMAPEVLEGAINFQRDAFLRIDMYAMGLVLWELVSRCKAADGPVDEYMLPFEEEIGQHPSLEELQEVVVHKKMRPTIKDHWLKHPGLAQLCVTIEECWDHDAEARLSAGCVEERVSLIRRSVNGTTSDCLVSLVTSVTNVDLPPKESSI

| SMILES | kinase still bound, per cent of control (ACVR2B (human)) [%] | kinase still bound, per cent of control (ADCK3 (human)) [%] | kinase still bound, per cent of control (AURKA (human)) [%] | kinase still bound, per cent of control (BMPR1A (human)) [%] | kinase still bound, per cent of control (BRSK1 (human)) [%] | kinase still bound, per cent of control (CAMK2A (human)) [%] | kinase still bound, per cent of control (CAMK2G (human)) [%] | kinase still bound, per cent of control (CLK3 (human)) [%] | kinase still bound, per cent of control (CSNK1A1L (human)) [%] | kinase still bound, per cent of control (DCLK1 (human)) [%] | kinase still bound, per cent of control (DDR2 (human)) [%] | kinase still bound, per cent of control (EPHA4 (human)) [%] | kinase still bound, per cent of control (EPHA7 (human)) [%] | kinase still bound, per cent of control (FLT3 (human)) [%] | kinase still bound, per cent of control (FRK (human)) [%] | kinase still bound, per cent of control (FYN (human)) [%] | kinase still bound, per cent of control (HIPK1 (human)) [%] | kinase still bound, per cent of control (INSRR (human)) [%] | kinase still bound, per cent of control (LIMK2 (human)) [%] | kinase still bound, per cent of control (MAP2K3 (human)) [%] | further results |
| --- | --- | --- | --- | --- | --- | --- | --- | --- | --- | --- | --- | --- | --- | --- | --- | --- | --- | --- | --- | --- | --- |
| Nc1ccc(-c2ccc3ncc4ccc(=O)n(-c5cccc(C(F)(F)F)c5)c4c3c2)cn1 | 97 | 88 | 100 | 100 | 88 | 83 | 95 | 71 | 89 | 97 | 99 | 100 | 100 | 12 | 100 | 92 | 79 | 100 | 89 | 66 | kinase still bound, per cent of control (DAPK2 (human)): 100%; kinase still bound, per cent of control (INSR (human)): 59%; kinase still bound, per cent of control (MAP3K7 (human)): 48%; kinase still bound, per cent of control (MAP3K9 (human)): 100%; kinase still bound, per cent of control (MAPK14 (human)): 100%; kinase still bound, per cent of control (MAPK4 (human)): 75%; kinase still bound, per cent of control (MAPK7 (human)): 100%; kinase still bound, per cent of control (PAK7 (human)): 69%; kinase still bound, per cent of control (PHKG2 (human)): 100%; kinase still bound, per cent of control (PKMYT1 (human)): 94%; kinase still bound, per cent of control (PLK3 (human)): 94%; kinase still bound, per cent of control (PRKACA (human)): 100%; kinase still bound, per cent of control (ROCK2 (human)): 81%; kinase still bound, per cent of control (RPS6KA5 KD2 (human)): 100%; kinase still bound, per cent of control (SIK2 (human)): 73%; kinase still bound, per cent of control (STK11 (human)): 98%; kinase still bound, per cent of control (TGFBR2 (human)): 84%; kinase still bound, per cent of control (TLK1 (human)): 90%; kinase still bound, per cent of control (ULK2 (human)): 95% |
| CCC(=O)N1CCN(c2ccc(-n3c(=O)ccc4cnc5ccc(-c6cnc7ccccc7c6)cc5c43)cc2C(F)(F)F)CC1 | 42 | 17 | 100 | 100 | 78 | 93 | 79 | 43 | 81 | 100 | 100 | 90 | 98 | 16 | 60 | 49 | 63 | 100 | 4.8 | 80 | kinase still bound, per cent of control (CSF1R (human)): 24%; kinase still bound, per cent of control (INSR (human)): 7.6%; kinase still bound, per cent of control (MAP3K7 (human)): 47%; kinase still bound, per cent of control (MAP3K9 (human)): 84%; kinase still bound, per cent of control (MAPK14 (human)): 90%; kinase still bound, per cent of control (MAPK4 (human)): 80%; kinase still bound, per cent of control (MAPK7 (human)): 100%; kinase still bound, per cent of control (PAK7 (human)): 87%; kinase still bound, per cent of control (PHKG2 (human)): 100%; kinase still bound, per cent of control (PKMYT1 (human)): 52%; kinase still bound, per cent of control (PLK3 (human)): 87%; kinase still bound, per cent of control (PRKACA (human)): 79%; kinase still bound, per cent of control (ROCK2 (human)): 50%; kinase still bound, per cent of control (RPS6KA5 KD2 (human)): 100%; kinase still bound, per cent of control (SIK2 (human)): 23%; kinase still bound, per cent of control (STK11 (human)): 100%; kinase still bound, per cent of control (TGFBR2 (human)): 77%; kinase still bound, per cent of control (TLK1 (human)): 100%; kinase still bound, per cent of control (ULK2 (human)): 75% |
| CC[C@@H]1C(=O)N(C)c2cnc(Nc3ccc(C(=O)NC4CCN(C)CC4)cc3OC)nc2N1C1CCCC1 | 100 | 100 | 100 | 100 | 100 | 26 | 100 | 29 | 100 | 5.4 | 100 | 100 | 100 | 100 | 100 | 100 | 100 | 100 | 100 | 100 | kinase still bound, per cent of control (CSF1R (human)): 100%; kinase still bound, per cent of control (DAPK2 (human)): 16%; kinase still bound, per cent of control (MAP3K7 (human)): 100%; kinase still bound, per cent of control (MAP3K9 (human)): 100%; kinase still bound, per cent of control (MAPK14 (human)): 100%; kinase still bound, per cent of control (MAPK4 (human)): 100%; kinase still bound, per cent of control (MAPK7 (human)): 19%; kinase still bound, per cent of control (PAK7 (human)): 100%; kinase still bound, per cent of control (PHKG2 (human)): 20%; kinase still bound, per cent of control (PKMYT1 (human)): 100%; kinase still bound, per cent of control (PLK3 (human)): 0%; kinase still bound, per cent of control (PRKACA (human)): 100%; kinase still bound, per cent of control (ROCK2 (human)): 100%; kinase still bound, per cent of control (RPS6KA5 KD2 (human)): 14%; kinase still bound, per cent of control (SIK2 (human)): 100%; kinase still bound, per cent of control (STK11 (human)): 100%; kinase still bound, per cent of control (TGFBR2 (human)): 100%; kinase still bound, per cent of control (TLK1 (human)): 100%; kinase still bound, per cent of control (ULK2 (human)): 100% |
